In this experiment the test system is human GABA α1β3β2 receptors. Description: GABAa, 3H-muscimol binding assay. The conditions noted are these: for % GABA Example: activity at 10 μM as percentage of activity of control compound P18 at 10 μM (increase of 3H-muscimol binding); for % GABA Parent: parent compound without R^4 heteroaryl, activity at 10 μM as percentage of activity of control compound P18 at 10 μM. The procedure: Membranes from recombinant Ltk cells expressing human GABA α1β3β2 receptors were suspended in an ice-cold solution of 100 mM KCl, 10 mM KH2PO4, adjusted to pH=7.4 with 1 M KOH. Tritiated muscimol (PerkinElmer, Wellesley, Mass.) at a concentration of 2 nM, and serial five-fold dilutions of test compounds at 10 μM, 2.0 μM, 400 nM, 80 nM, 16 nM, 3.2 nM, 0.64 nM and 0.13 nM were mixed in 96-well plates containing 200 μL of membrane suspension. Cold muscimol and compound P18 were used as negative and positive controls respectively. The assay mixture was incubated at 4° C. for 2 hours, then harvested on GF/C filter plates and washed with ice-cold 50 mM Tris-Ci buffer. The filter plates were dried and counted in a Wallac MicroBeta® Trilux detector (Model 1450-030; PerkinElmer, Wellesley, Mass.), and the data were downloaded and analyzed using Prism 3.0. The activity of compound P18 at 10 μM was used as reference for the test compounds, and it was expressed as increasing ^3H-muscimol binding by 100%, whereas cold muscimol at 2 μM antagonized ^3H-muscimol binding by 100%. The tested compound's activity at 10 μM was expressed as a percentage of compound P18's activity at 10 μM.
As a reference, the parent compound (the compound not substituted with a R^4 heteroaryl, such as pyrazole or 1,2,4-oxadiazole, as indicated below) is also shown with its Gamma Amino Butyric Acid (GABA) Receptor activity. […] As a result, the compounds of the present invention in which R^4 is a heteroaryl, such as pyrazole or 1,2,4-oxadiazole, have the unexpected benefits of minimizing off target activity at the GABA receptor.
Note: % GABA is defined as the GABA activity of the indicated compound expressed as a percentage of the activity of control compound P18. NA=data not available.

Here are results for 28 molecules from patent publication US20080269279A1, “Substituted furo[2,3-B] pyridine derivatives as cannabinoid-1 receptor modulators” (priority 2007, published 2008).

Molecules are shown by their SMILES.

`CC(C)(O)C(=O)c1oc2nc(-c3ccc(-c4cn[nH]c4)cc3Cl)c(-c3ccc(Cl)cc3)cc2c1NC(=O)CO` [Example 31, N-[5-(4-Chlorophenyl)-6-[2-chloro-4-(1H-pyrazol-4-yl)phenyl]-2-(2-hydroxy-2-methylpropanoyl)-furo[2,3-b]pyridin-3-yl]-2-hydroxyacetamide]: the “% GABA Example” value came to 30%.
Same read-out and setting: the figure for `CC(C)(C)C(=O)c1oc2nc(-c3ccc(-c4cn[nH]c4)cc3Cl)c(-c3ccc(Cl)cc3)cc2c1NC(=O)CO` [Example 32, N-[5-(4-Chlorophenyl)-6-[2-chloro-4-(1H-pyrazol-4-yl)phenyl]-2-(2,2-dimethylpropanoyl)furo[2,3-b]pyridin-3-yl]-2-hydroxyacetamide] is 29%; for `CC(=O)Nc1c(C(=O)C(C)C)oc2nc(-c3ccc(-c4c[nH]nc4C)cc3Cl)c(-c3ccc(Cl)cc3)cc12` [Example 33, N-[6-[2-Chloro-4-(3-methyl-1H-pyrazol-4-yl)phenyl]-5-(4-chlorophenyl)-2-isobutyrylfuro[2,3-b]pyridin-3-yl]acetamide] it is 34%; for `Cc1n[nH]cc1-c1ccc(-c2nc3oc(C(=O)C(C)(C)O)c(C)c3cc2-c2ccc(Cl)cc2)c(Cl)c1` [Example 34, 1-[6-[2-Chloro-4-(3-methyl-1H-pyrazol-4-yl)phenyl]-5-(4-chlorophenyl)-3-methylfuro[2,3-b]pyridin-2-yl]-2-hydroxy-2-methylpropan-1-one] it is 29%.
Consider `CCc1c(C(=O)C(C)(C)O)oc2nc(-c3ccc(-c4c[nH]nc4C)cc3Cl)c(-c3ccc(Cl)cc3)cc12` [Example 35, 1-[6-[2-Chloro-4-(3-methyl-1H-pyrazol-4-yl)phenyl]-5-(4-chlorophenyl)-3-ethylfuro[2,3-b]pyridin-2-yl]-2-hydroxy-2-methylpropan-1-one], for which the “% GABA Example” value was found to be 59%.
On to `Cc1n[nH]cc1-c1ccc(-c2nc3oc(C(=O)C(C)(C)C)c(C)c3cc2-c2ccc(Cl)cc2)c(Cl)c1` [Example 36, 1-[6-[2-Chloro-4-(3-methyl-1H-pyrazol-4-yl)phenyl]-5-(4-chlorophenyl)-3-methylfuro[2,3-b]pyridin-2-yl]-2,2-dimethylpropan-1-one], for which the “% GABA Example” value is 16%.
On the same count and under the same terms, as for `Cc1n[nH]cc1-c1ccc(-c2nc3oc(C(=O)C(C)C)c(N4CCCC4=O)c3cc2-c2ccc(Cl)cc2)c(Cl)c1` [Example 39, 1-[6-[2-Chloro-4-(3-methyl-1H-pyrazol-4-yl)phenyl]-5-(4-chlorophenyl)-2-isobutyrylfuro[2,3-b]pyridin-3-yl]pyrrolidin-2-one], the figure is 29%; as for `Cc1c(C(=O)C(C)(C)C)oc2nc(-c3ccc(-c4ncon4)cc3Cl)c(-c3ccc(Cl)cc3)cc12` [Example 42, 1-[6-[2-Chloro-4-(1,2,4-oxadiazol-3-yl)phenyl]-5-(4-chlorophenyl)-3-methylfuro[2,3-b]pyridin-2-yl]-2,2-dimethylpropan-1-one], 5%.
For the molecule `CC(=O)Nc1c(C(=O)C(C)(C)O)oc2nc(-c3ccccc3Cl)c(-c3ccc(Cl)cc3)cc12` [Example P1, reference compound], the “% GABA Parent” value stood at 99%.
Still for that read-out and setting: the figure for `CC(=O)Nc1c(C(=O)C(C)C)oc2nc(-c3ccccc3Cl)c(-c3ccc(Cl)cc3)cc12` [Example P2, reference compound] is 107%; for `CC(=O)Nc1c(C(=O)C(C)(C)C)oc2nc(-c3ccccc3Cl)c(-c3ccc(Cl)cc3)cc12` [Example P3, reference compound] it is 67%; for `CCC(=O)c1oc2nc(-c3ccccc3Cl)c(-c3ccc(Cl)cc3)cc2c1NC(C)=O` [Example P4, reference compound] it is 76%.
On to `CC(C)(C)C(=O)c1oc2nc(-c3ccccc3Cl)c(-c3ccc(Cl)cc3)cc2c1N` [Example P5, reference compound], for which the “% GABA Parent” value is listed as 33%.
On to `Cc1c(C(=O)C(C)(C)O)oc2nc(-c3ccccc3Cl)c(-c3ccc(Cl)cc3)cc12` [Example P7, reference compound], for which the “% GABA Parent” value worked out at 75%.
Same read-out and setting: as for `Cc1c(C(=O)C(C)(C)C)oc2nc(-c3ccccc3Cl)c(-c3ccc(Cl)cc3)cc12` [Example P8, reference compound], the figure is 25%; as for `Cc1c(S(=O)(=O)C(C)(C)C)oc2nc(-c3ccccc3Cl)c(-c3ccc(Cl)cc3)cc12` [Example P9, reference compound], 29%; as for `Cc1c(C(=O)CC(C)C)oc2nc(-c3ccccc3Cl)c(-c3ccc(Cl)cc3)cc12` [Example P10, reference compound], 59%.
For `C[C@H](O)C(=O)Nc1c(C(=O)C(C)(C)C)oc2nc(-c3ccccc3Cl)c(-c3ccc(Cl)cc3)cc12` [Example P11, reference compound], the “% GABA Parent” value amounted to 94%.
Still for that read-out and setting: as for `CC(C)(C)C(=O)c1oc2nc(-c3ccccc3Cl)c(-c3ccc(Cl)cc3)cc2c1C(N)=O` [Example P12, reference compound], the figure is 40%.
Still for that read-out and setting: the figure for `CC(C)(O)C(=O)c1oc2nc(-c3ccccc3Cl)c(-c3ccc(Cl)cc3)cc2c1N` [Example P13, reference compound] is 91%.
Turning to `Cc1c(C(=O)C(C)C)oc2nc(-c3ccccc3Cl)c(-c3ccc(Cl)cc3)cc12` [Example P14, reference compound], the “% GABA Parent” value is 51%.
Take `CCC(=O)c1oc2nc(-c3ccccc3Cl)c(-c3ccc(Cl)cc3)cc2c1C` [Example P15, reference compound]: the “% GABA Parent” value is listed as 50%.
Still for that read-out and setting: as for `CC(C)(C)C(=O)c1oc2nc(-c3ccccc3Cl)c(-c3ccc(Cl)cc3)cc2c1NC(=O)CO` [Example P16, reference compound], the figure is 90%.
Same read-out and setting: as for `CC(C)C(=O)c1oc2nc(-c3ccccc3Cl)c(-c3ccc(Cl)cc3)cc2c1N1CCCC1=O` [Example P17, reference compound], the figure is 100%; as for `CC(C)(O)C(=O)c1oc2nc(-c3ccccc3Cl)c(-c3ccc(Cl)cc3)cc2c1NC(=O)CO` [Example P18, reference compound], 100%; as for `CCc1c(C(=O)C(C)(C)O)oc2nc(-c3ccccc3Cl)c(-c3ccc(Cl)cc3)cc12` [Example P19, reference compound], 96%.
The same measure, in the same setting: as for `CC(C)(C)C(=O)c1oc2nc(-c3ccccc3Cl)c(-c3ccc(Cl)cc3)cc2c1CO` [Example P20, reference compound], the figure is 50%; as for `CC(=O)c1c(C(=O)C(C)(C)C)oc2nc(-c3ccccc3Cl)c(-c3ccc(Cl)cc3)cc12` [Example P21, reference compound], 62%.
